The values below come from PMC6784069 (Toxins, 2019).

SMILES strings stand for the structures. Where “and” joins values, the source holds several entries; their conditions need not be identical. Equal entries are not always repeated. Where two headings read alike, the source gives them in different places. Residues, ends and D or L forms follow the SMILES beside them.

Series [1] concerns the target T1, hKV11.1 (Homo sapiens, UniProt Q12809). The series can be described thus: in vitro. As to conditions: pH 7.4.
The target of the next series is hNaV1.1 (Homo sapiens, UniProt P35498). Briefly: cell-based. Conditions: SD.
A further series concerns the target hNaV1.2 (Homo sapiens, UniProt Q99250). The series can be described thus: cell-based. As to conditions: SD.
The target in the next series is hNaV1.3 (Homo sapiens, UniProt Q9NY46). Briefly: cell-based. As to conditions: SD.
The target in another series is hNaV1.5 (Homo sapiens, UniProt Q14524). The series can be described thus: cell-based. Conditions: IC50 on hNaV1.5 current; SD.
A further series deals with hNaV1.6 (Homo sapiens, UniProt Q9UQD0). The series can be described thus: cell-based. As to conditions: SD.
The target of the next series is hNaV1.7 (Homo sapiens, UniProt Q15858). Briefly: cell-based. As to conditions: for IC50: SD. It is filed as cell-based.
A further series addresses hNaV1.8 (Homo sapiens, UniProt Q9Y5Y9). The series can be described thus: cell-based. It is filed as cell-based.
The target of a further series is hCaV1.2 (Homo sapiens, UniProt Q13936). Briefly: cell-based. As to conditions: SD.
For series [2], the target named is T1, hKV11.1.
The subject of series [3] is OD1-induced painful behavior of mice. Conditions: mouse, in vivo.
The subject of series [4] is hNaV1.2, 1.5 and 1.7–1.8, hCaV1.2 and hKV11.1 currents. Conditions: SD.
A further series relates to NaV1.7. Conditions: cited from earlier work.
The test system of another series is NaV1.1. Conditions: cited from earlier work.
For the next series, the system named is NaV1.2. As to conditions: cited from earlier work.
The subject of a further series is NaV1.3. Conditions: cited from earlier work.
The subject of another series is NaV1.8. As to conditions: cited from earlier work.
For the next series, the system named is Drosophila Para/TipE. Conditions: cited from earlier work.
Series [5] deals with paw formalin injection pain. As to conditions: mouse, in vivo; cited from earlier work.
Series [6] relates to CFA-induced heat hyperalgesia. As to conditions: mouse, in vivo; cited from earlier work.
In another series the test system is acute heat responses. As to conditions: in vivo, ip; cited from earlier work.
The test system of a further series is NaV1.5. As to conditions: cited from earlier work.
Another series has as its system hNaV1.1–1.8. It counts as cell-based, human. Conditions: read-out: IC90–95 (compound concentration necessary to inhibit 90–95% of current).

Sequence of hNaV1.7 (Q15858 whole entry): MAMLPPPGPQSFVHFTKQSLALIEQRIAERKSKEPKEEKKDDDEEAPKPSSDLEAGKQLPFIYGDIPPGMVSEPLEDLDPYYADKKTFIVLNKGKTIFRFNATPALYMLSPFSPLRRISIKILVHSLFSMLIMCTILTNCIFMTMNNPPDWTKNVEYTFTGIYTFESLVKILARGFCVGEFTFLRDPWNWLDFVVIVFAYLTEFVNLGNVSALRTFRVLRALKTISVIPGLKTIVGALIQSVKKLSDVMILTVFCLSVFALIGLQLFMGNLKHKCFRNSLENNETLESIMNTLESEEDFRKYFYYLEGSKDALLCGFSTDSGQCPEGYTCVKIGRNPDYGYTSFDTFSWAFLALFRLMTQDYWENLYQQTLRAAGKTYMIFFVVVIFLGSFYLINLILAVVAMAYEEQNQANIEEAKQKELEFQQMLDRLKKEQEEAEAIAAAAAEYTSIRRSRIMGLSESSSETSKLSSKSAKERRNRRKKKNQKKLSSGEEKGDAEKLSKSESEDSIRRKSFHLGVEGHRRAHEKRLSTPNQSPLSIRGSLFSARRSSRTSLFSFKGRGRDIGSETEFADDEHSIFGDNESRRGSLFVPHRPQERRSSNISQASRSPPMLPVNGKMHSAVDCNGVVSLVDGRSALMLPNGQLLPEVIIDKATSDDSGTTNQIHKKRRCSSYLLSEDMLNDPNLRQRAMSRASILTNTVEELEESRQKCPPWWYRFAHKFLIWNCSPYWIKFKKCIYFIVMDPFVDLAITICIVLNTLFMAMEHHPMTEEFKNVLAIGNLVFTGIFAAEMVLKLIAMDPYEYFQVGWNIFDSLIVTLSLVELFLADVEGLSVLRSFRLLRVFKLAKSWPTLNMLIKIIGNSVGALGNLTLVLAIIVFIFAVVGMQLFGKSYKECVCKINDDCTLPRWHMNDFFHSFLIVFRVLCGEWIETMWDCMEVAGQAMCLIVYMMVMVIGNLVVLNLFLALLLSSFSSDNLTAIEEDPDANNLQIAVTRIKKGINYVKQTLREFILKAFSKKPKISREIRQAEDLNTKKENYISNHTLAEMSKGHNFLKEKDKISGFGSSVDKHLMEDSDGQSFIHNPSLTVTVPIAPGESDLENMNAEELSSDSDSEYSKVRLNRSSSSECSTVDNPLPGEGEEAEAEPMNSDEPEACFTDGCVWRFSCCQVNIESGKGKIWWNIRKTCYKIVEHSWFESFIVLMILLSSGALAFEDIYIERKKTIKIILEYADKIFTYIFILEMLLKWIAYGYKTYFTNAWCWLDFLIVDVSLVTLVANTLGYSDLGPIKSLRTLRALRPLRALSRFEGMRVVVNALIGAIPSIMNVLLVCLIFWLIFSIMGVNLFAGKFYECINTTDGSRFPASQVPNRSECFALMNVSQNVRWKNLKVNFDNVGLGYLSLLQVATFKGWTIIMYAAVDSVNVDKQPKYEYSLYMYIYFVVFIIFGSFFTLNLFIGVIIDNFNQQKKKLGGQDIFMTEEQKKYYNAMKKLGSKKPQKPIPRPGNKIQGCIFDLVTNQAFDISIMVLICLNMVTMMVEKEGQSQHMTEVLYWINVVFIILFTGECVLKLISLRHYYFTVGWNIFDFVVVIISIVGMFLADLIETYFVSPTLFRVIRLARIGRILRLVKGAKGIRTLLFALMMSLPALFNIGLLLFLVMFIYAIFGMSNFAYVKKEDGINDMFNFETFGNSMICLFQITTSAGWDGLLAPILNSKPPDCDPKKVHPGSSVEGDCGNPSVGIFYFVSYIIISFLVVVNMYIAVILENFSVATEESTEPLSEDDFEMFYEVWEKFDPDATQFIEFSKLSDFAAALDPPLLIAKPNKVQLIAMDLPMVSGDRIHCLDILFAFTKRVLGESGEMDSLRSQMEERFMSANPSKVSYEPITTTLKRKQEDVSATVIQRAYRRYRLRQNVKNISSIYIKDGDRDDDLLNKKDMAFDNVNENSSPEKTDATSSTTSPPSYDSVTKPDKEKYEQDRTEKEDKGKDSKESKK
Sequence of hNaV1.8 (Q07699 19-218): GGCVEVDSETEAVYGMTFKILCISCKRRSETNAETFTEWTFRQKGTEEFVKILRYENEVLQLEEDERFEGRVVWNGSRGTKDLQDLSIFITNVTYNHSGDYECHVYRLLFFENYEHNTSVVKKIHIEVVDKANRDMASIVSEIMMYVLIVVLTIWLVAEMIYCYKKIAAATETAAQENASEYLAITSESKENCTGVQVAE
Sequence of hNaV1.8 (Q9Y5Y9 whole entry): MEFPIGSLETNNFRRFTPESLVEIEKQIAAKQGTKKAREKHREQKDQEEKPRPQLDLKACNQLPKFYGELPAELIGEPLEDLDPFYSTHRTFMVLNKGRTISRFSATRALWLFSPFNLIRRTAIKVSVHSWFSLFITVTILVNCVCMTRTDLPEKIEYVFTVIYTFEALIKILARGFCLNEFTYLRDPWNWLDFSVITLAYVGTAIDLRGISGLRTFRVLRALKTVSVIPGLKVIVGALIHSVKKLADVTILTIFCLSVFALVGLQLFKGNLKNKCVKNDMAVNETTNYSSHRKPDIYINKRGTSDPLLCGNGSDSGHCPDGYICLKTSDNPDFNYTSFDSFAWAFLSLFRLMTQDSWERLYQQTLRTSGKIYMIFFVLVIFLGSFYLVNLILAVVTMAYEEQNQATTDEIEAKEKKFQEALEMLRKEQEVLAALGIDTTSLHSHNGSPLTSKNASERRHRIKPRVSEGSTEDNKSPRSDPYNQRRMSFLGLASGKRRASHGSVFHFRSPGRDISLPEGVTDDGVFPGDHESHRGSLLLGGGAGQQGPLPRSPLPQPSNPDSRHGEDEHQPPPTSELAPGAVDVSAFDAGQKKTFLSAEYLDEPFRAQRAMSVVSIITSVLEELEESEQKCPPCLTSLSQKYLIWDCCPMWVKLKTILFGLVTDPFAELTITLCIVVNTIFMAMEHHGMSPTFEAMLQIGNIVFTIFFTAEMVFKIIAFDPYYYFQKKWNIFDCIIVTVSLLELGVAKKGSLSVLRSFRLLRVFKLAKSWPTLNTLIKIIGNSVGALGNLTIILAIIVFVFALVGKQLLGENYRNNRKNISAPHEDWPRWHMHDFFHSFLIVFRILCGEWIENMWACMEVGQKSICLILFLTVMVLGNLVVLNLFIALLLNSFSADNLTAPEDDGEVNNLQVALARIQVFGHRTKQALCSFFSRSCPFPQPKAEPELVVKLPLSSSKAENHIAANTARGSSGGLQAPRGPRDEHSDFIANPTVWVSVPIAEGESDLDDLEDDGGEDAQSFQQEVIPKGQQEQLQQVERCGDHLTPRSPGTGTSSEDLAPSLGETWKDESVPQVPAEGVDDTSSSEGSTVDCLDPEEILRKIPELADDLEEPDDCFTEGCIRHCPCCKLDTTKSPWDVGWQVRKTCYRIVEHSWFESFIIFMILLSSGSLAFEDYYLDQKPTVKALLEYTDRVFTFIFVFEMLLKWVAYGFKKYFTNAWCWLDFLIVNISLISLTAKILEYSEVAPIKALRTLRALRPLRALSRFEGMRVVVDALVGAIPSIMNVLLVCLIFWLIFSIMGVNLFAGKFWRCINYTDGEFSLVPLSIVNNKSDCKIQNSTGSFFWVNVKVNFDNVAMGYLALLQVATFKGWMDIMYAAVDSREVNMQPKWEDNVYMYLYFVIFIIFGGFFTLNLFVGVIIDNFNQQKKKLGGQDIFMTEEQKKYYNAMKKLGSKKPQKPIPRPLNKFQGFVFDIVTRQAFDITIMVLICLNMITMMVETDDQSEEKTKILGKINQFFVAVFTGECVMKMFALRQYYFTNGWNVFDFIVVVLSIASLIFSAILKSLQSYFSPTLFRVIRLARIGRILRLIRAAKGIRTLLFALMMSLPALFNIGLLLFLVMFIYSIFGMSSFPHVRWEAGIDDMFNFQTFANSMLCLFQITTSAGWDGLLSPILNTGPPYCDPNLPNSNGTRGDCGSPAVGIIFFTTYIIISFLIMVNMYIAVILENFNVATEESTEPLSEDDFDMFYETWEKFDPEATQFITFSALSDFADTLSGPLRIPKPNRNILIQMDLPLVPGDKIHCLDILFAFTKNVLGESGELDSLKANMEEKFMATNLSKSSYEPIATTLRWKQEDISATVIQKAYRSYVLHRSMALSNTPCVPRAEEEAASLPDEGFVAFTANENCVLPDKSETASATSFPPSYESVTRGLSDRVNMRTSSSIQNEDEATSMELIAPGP

Compound `CC[C@H](C)[C@H](NC(=O)[C@H](CC(=O)O)NC(=O)[C@@H](NC(=O)[C@@H]1CCCN1C(=O)[C@@H](N)CCCNC(=N)N)[C@@H](C)O)C(=O)N[C@@H](CCCCN)C(=O)N[C@H]1CSSC[C@@H]2NC(=O)[C@H](CCCNC(=N)N)NC(=O)CNC(=O)[C@H](CC(N)=O)NC(=O)[C@H]([C@@H](C)O)NC(=O)[C@H](CCCCN)NC(=O)CNC(=O)[C@H](Cc3ccccc3)NC(=O)[C@H](CCCNC(=N)N)NC(=O)[C@H](CO)NC(=O)[C@H](CCCCN)NC(=O)[C@@H]3CSSC[C@@H](C(=O)N[C@@H](Cc4ccccc4)C(=O)O)NC(=O)[C@H](CC(=O)O)NC(=O)[C@H](CSSC[C@H](NC(=O)[C@H](CCC(N)=O)NC(=O)[C@H](Cc4ccc(O)cc4)NC(=O)[C@H](CO)NC(=O)[C@H](CCC(=O)O)NC(=O)[C@H](CO)NC1=O)C(=O)N[C@@H](Cc1ccccc1)C(=O)N1CCC[C@H]1C(=O)N[C@@H](C(C)C)C(=O)N3)NC(=O)[C@H](Cc1ccccc1)NC(=O)CNC(=O)[C@H](CC(N)=O)NC(=O)[C@H](C(C)C)NC2=O` [BeKm-1] (HELM PEPTIDE1{R.P.T.D.I.K.C.S.E.S.Y.Q.C.F.P.V.C.K.S.R.F.G.K.T.N.G.R.C.V.N.G.F.C.D.C.F}$PEPTIDE1,PEPTIDE1,7:R3-28:R3|PEPTIDE1,PEPTIDE1,13:R3-33:R3|PEPTIDE1,PEPTIDE1,17:R3-35:R3$$$V2.0) had an IC90 at hKV11.1 [1] of 1000 nM.
On to `CC(C)C[C@@H]1NC(=O)[C@@H](NC(=O)[C@H](C)N)CSSC[C@@H]2NC(=O)[C@@H]3CSSC[C@@H](C(=O)N[C@@H](CCCNC(=N)N)C(=O)N[C@@H](Cc4ccc(O)cc4)C(=O)N[C@@H](CCCCN)C(=O)N[C@@H](CC(C)C)C(=O)N[C@@H](Cc4ccccc4)C(=O)O)NC(=O)[C@H](Cc4c[nH]c5ccccc45)NC(=O)[C@@H]4CCCN4C(=O)[C@H](Cc4ccc(O)cc4)NC(=O)[C@H](CCCCN)NC(=O)[C@H](Cc4c[nH]c5ccccc45)NC(=O)[C@H](CCC(=O)O)NC(=O)[C@H](CSSC[C@H](NC(=O)[C@H](CO)NC(=O)[C@H](CC(=O)O)NC(=O)[C@H](Cc4c[nH]c5ccccc45)NC(=O)[C@H](CCC(N)=O)NC(=O)CNC1=O)C(=O)N[C@@H](CC(=O)O)C(=O)N1CCC[C@H]1C(=O)N[C@@H](CCCCN)C(=O)N[C@@H](C)C(=O)N[C@@H](CO)C(=O)N[C@@H](CCCCN)C(=O)N3)NC(=O)[C@H](C)NC(=O)[C@H](Cc1ccc(O)cc1)NC(=O)[C@H](CC(N)=O)NC(=O)[C@@H]1CCCN1C2=O` [PhlTx1] (HELM PEPTIDE1{A.C.L.G.Q.W.D.S.C.D.P.K.A.S.K.C.C.P.N.Y.A.C.E.W.K.Y.P.W.C.R.Y.K.L.F}$PEPTIDE1,PEPTIDE1,2:R3-17:R3|PEPTIDE1,PEPTIDE1,9:R3-22:R3|PEPTIDE1,PEPTIDE1,16:R3-29:R3$$$V2.0), for which the IC50 on hNaV1.1 is 280 ± 118 nM; on hNaV1.2, 73.7 ± 46.3 nM; at hNaV1.2 (read-out: IC50 on hNaV1.2 current) it was 279 ± 6.1 nM; at hNaV1.3, 202 ± 110 nM; against hNaV1.5, 711 nM and 396 nM; on hNaV1.6, 491 ± 109 nM. Besides, the concentration for half-maximal inhibition (IC50) on hNaV1.7 (IC50 on hNaV1.7 current) was 309 ± 17 nM; against hNaV1.7 (hNaV1.7 IC50) it was 254 nM; at hNaV1.8, more than 10000 nM; against hCaV1.2, 5900 ± 2100 nM; in the series on NaV1.7 (read-out: mean IC50 for interaction with the NaV1.7 subtype) it was 260 nM. Further, the “pharmacological activity on the hNaV1.7 current” value at hNaV1.7 is given as “strongly inhibit”. In addition, the “selectivity towards the TTX-R (except hNaV1.8) and other TTX-S (except hNaV1.4) hNaV subtypes” value at hNaV1.7 was “less than 10 fold”. Moreover, the “effect on the hNaV1.8 current” value on hNaV1.8 is recorded as “unaffected”. Further, on hKV11.1 [2], the “effect on the hKV11.1 current” value is listed as “no effect”. Besides, the “cardiac or neuromuscular side-effects” value in series [3] is “no sign of cardiac or neuromuscular side-effects”. Moreover, the “Hill number nH, all concentration–response curves” value in series [4] is given as 1.05 ± 0.15. Also, in the series on NaV1.7, the “inhibition of NaV1.7 current” value is given as “greater than 90%”. For the same compound, in the series on NaV1.1, the “inhibition of NaV1.1 current” value is recorded as “less than 10%”. Also, the “inhibition of NaV1.2 current” value with NaV1.2 is “less than 10%”. Also, the “inhibition of NaV1.3 current” value in the series on NaV1.3 is “less than 10%”. Also, the “inhibition of NaV1.8 current” value with NaV1.8 is given as “less than 10%”. The “inhibition of Drosophila Para/TipE current” value in the series on Drosophila Para/TipE was “less than 10%”. Besides, the “effects in acute and inflammatory neuropathic (paw formalin injection) pain” value in [5] is “Anti-allodynic and analgesic effects”. In addition, in series [6], the “analgesia in CFA-induced heat hyperalgesia” value is given as “ineffective”. Moreover, the “effect on mouse acute heat responses” value with acute heat responses is reported as “ineffective”. Further, in the series on NaV1.5, the “inhibition of NaV1.5 current” value was “less than 10%”.
For the compound `NC1=N[C@H](O)[C@H]2[C@H]3O[C@]4(O)O[C@@H]([C@@H](O)[C@@]2(N1)[C@@H]4O)[C@]3(O)CO` [Tetrodotoxin (citrate), Tetrodotoxin], the IC90 with hNaV1.1–1.8 was 1000 nM.

What is called IC50 is the midpoint of a concentration-inhibition curve.
